Experimental data from patent US7649012B2, “Compounds, pharmaceutical compositions containing same, and methods of use for same” (FASgen, Inc., priority 2002, dated 2010).
≈ marks a conversion by molar mass, not a printed value.

How the values were obtained:
[1] = system: MCF-7 human breast cancer cells; experiment: Crystal violet cell growth assay; type: cell-based; details: MCF7, MCF-7, 72 hours, read-out: Cr. Violet(IC50)
Protocol: The crystal violet assay measure cell growth but not cytotoxicity. This assay employs crystal violet staining of fixed cells in 96-well plates with subsequent solubilization and measurement of OD490 on a spectrophotometer. The OD490 corresponds to cell growth per unit time measured. Cells are treated with the compounds of interest or vehicle controls and IC50 for each compound is computed.
To measure the cytotoxicity of specific compounds against cancer cells, 5×10^4 MCF-7 human breast cancer cells, obtained from the American Type Culture Collection are plated per well in 24 well plates in DMEM medium with 10% fetal bovine serum, penicillin, and streptomycin. Following overnight culture at 37° C. and 5% CO2, the compounds to be tested, dissolved in DMSO, are added to the wells in 1 μl volume at the following concentrations: 50, 40, 30, 20, and 10 μg/ml in triplicate. Additional concentrations are tested if required. 1 μl of DMSO is added to triplicate wells are the vehicle control. C75 is run at 10, and 5 μg/ml in triplicate as positive controls.
After 72 hours of incubation, cells are stained with 0.5 ml of Crystal Violet stain (0.5% in 25% methanol) in each well. After 10 minutes, wells are rinsed, air dried, and then solubilized with 0.5 ml 10% sodium dodecylsulfate with shaking for 2 hours.

[2] = system: MCF-7 human breast cancer cells; experiment: [14C]acetate incorporation into total lipids; type: cell-based; details: [14C]acetate incorporation into lipids
Protocol: This assay measures the incorporation of [^14C]acetate into total lipids and is a measure of fatty acid synthesis pathway activity in vitro. It is utilized to measure inhibition of fatty acid synthesis in vitro.
MCF-7 human breast cancer cells cultured as above, are plated at 5×10^4 cells per well in 24-well plates. […] DMSO is added to triplicate wells for a vehicle control. C75 is run at 5 and 10 μg/ml in triplicate as positive controls. After 4 hours of incubation, 0.25 μCi of [^14C]acetate (10 μl volume) is added to each well.
After 2 hours of additional incubation, medium is aspirated from the wells and 800 μl of chloroform:methanol (2:1) and 700 μl of 4 mM MgCl2 is added to each well. Contents of each well are transferred to 1.5 Eppendorf tubes, and spun at full-speed for 2 minutes in a high-speed Eppendorf Microcentrifuge 5415D. After removal of the aqueous (upper) layer, an additional 700 μl of chloroform:methanol (2:1) and 500 μl of 4 mM MgCl2 are added to each tube and then centrifuged for 1 minutes as above. The aqueous layer is removed with a Pasteur pipette and discarded. An additional 400 μl of chloroform:methanol (2:1) and 200 μl of 4 mM MgCl2 are added to each tube, then centrifuged and aqueous layer is discarded. The lower (organic) phase is transferred into a scintillation vial and dried at 40° C. under N2 gas. Once dried, 3 ml of scintillant (APB #NBC5104) is added and vials are counted for ^14C. The Beckman Scintillation counter calculates the average cpm values for triplicates.
The IC50 for the compounds is defined as the concentration of drug leading to a 50% reduction in [^14C]acetate incorporation into lipids compared to controls. […] The average cpm values are computed by the Beckman scintillation counter (Model LS6500) for each compound concentration. Computation of linear regression, best-fit line, r^2, and 95% confidence intervals are calculated using Prism Version 3.0 (Graph Pad Software).

[3] = system: Pseudomonas aeruginosa (ATCC # 27853); experiment: Broth microdilution MIC; type: cell-based
Protocol: (§1) A broth microdilution assay is used to assess the antimicrobial activity of the compounds. […] Microorganisms tested include Staphylococcus aureus (ATCC # 29213), Enterococcus faecalis (ATCC # 29212), Pseudomonas aeruginosa (ATCC # 27853), and Escherichia coli (ATCC # 25922). The assay is performed in two growth media, Mueller Hinton Broth and Trypticase Soy Broth. […] Colonies are suspended in sterile broth so that the turbidity matches the turbidity of a 0.5 McFarland standard. The inoculum is diluted 1:10 in sterile broth (Mueller Hinton or Trypticase soy) and 195 ul is dispensed per well of a 96-well plate. The compounds to be tested, dissolved in DMSO, are added to the wells in 5 ul volume at the following concentrations: 25, 12.5, 6.25, 3.125, 1.56 and 0.78 ug/ml in duplicate. Additional concentrations are tested if required. 5 ul of DMSO added to duplicate wells are the vehicle control. Serial dilutions of positive control compounds, vancomycin (E. faecalis and S. aureus) and tobramycin (E. coli and P. aeruginosa), are included in each run. After 24 hours of incubation at 37° C., plates are read at OD600 on a Molecular Devices SpectraMax Plus Spectrophotometer. Average OD600 values are computed using SOFTmax Pro Software (Molecular Devices) and MIC values are determined by linear regression analysis using Prism version 3.02 (Graph Pad Software, San Diego).

[4] = system: Staphylococcus aureus (ATCC # 29213); experiment: Broth microdilution MIC; type: cell-based; details: Staphylococcus aureus, ATCC29213; Trypticase Soy Broth; read-out: SA/Tsoy(MIC)
Protocol: as §1

Raji cells = details: cited from earlier work
[5] = target: rat liver acyl-CoA synthetase; details: read-out: 50% inhibition of rat liver acyl-CoA synthetase; cited from earlier work
viral HIV protease = viral HIV protease (Human immunodeficiency virus type 1 group M subtype B, UniProt P04585); details: cited from earlier work

SMILES: C=CCOC1=C(C)C(=O)S[C@]1(C)CCCCCCCC (racemic)
- IC50 [1]: 15.1 µg/mL (≈ 50.9 µM)
- 14C(IC50) [2]: Neg

SMILES: CCCCCCCC[C@@]1(C)SC(=O)C(C(=O)OC)=C1O (racemic)
- PSAE/MH(MIC) ([3]; Mueller Hinton Broth): Neg
- PSAE/Tsoy(MIC) ([3]; Trypticase Soy Broth): Neg
- MIC [4]: 23 µg/mL (≈ 76.6 µM)

SMILES: CCCC=CCC=CC=CC=NN=NO [Triacsin C, 1-hydroxy-3-(E, E, E-2′,4′,7′-undecatrienylidine) triazene]
- concentration causing growth inhibition in Raji cells (Raji cells): 1.0 µM
- IC50 [5]: 8.7 µM

SMILES: C/C=C/C/C=C/CCC(=O)[C@H]1O[C@H]1C(N)=O [cerulenin, (2S,3R)-2,3-epoxy-4-oxo-7,10 dodecadienoyl amide]
- concentration for inhibition of viral HIV protease (viral HIV protease): 5 mg/mL
